In patent US10669268B2, “Bicyclic derivatives” (Hoffmann-La Roche Inc., priority 2012, dated 2020):

Target: ATX (human His-tagged) (Homo sapiens (Human), UniProt Q13822)
Test: Human ATX enzyme inhibition assay (fluorescence quenching, MR121 substrate)
Assay type: biochemical
Details: 30 nM ATX, 1 μM MR121 substrate, 30° C., pH 8.0
Procedure, shortened: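 Tris-HCl buffer at pH 8.0 contained 140 mM NaCl, 5 mM KCl, 1 mM each CaCl2 and MgCl2, and 0.01% Triton X-100. The MR121 substrate (1 μM final) was incubated with enzyme for 15 min at 30 °C, and activity was read by fluorescence quenching.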

| SMILES | IC50 [nM] |
| --- | --- |
| O=C(/C=C/c1ccc(Cl)cc1Cl)N1CC[C@@H]2CN(C(=O)c3ccc4[nH]nnc4c3)C[C@@H]2CC1 [Example 15.30] | 14 |
| O=C(/C=C/c1ccc(Cl)c(Cl)c1)N1CC[C@@H]2CN(C(=O)c3ccc4[nH]nnc4c3)C[C@@H]2CC1 [Example 15.31] | 38 |
| N#Cc1ccc(/C=C/C(=O)N2CC[C@@H]3CN(C(=O)c4ccc5[nH]nnc5c4)C[C@@H]3CC2)c(F)c1 [Example 15.34] | 3 |
| N#Cc1ccc(/C=C/C(=O)N2C[C@@H]3CN(C(=O)c4ccc5[nH]nnc5c4)C[C@H]3C2)c(F)c1 [Example 15.35] | 31 |
| O=C(/C=C/c1ccc(OC(F)F)cc1)N1C[C@@H]2CN(C(=O)c3ccc4[nH]nnc4c3)C[C@H]2C1 [Example 15.36, (E)-1-((3aR,6aR)-5-(1H-benzo[d][1,2,3]triazole-5-carbonyl)hexahydro-pyrrolo[3,4-c]pyrrol-2(1H)-yl)-3-(4-(difluoromethoxy)phenyl)-prop-2-en-1-one] | 3 |
| O=C(/C=C/c1ccc(OC(F)(F)F)cc1)N1CC[C@H]2CN(C(=O)c3ccc4[nH]nnc4c3)C[C@H]2C1 [Example 15.37] | 93 |
| N#Cc1cccc(/C=C/C(=O)N2CC[C@@H]3CN(C(=O)c4ccc5[nH]nnc5c4)C[C@@H]3CC2)c1 [Example 15.38] | 50 |
| O=C(/C=C/c1ccc(OC(F)(F)F)cc1F)N1CC[C@@H]2CN(C(=O)c3ccc4[nH]nnc4c3)C[C@@H]2CC1 [Example 15.39] | 5 |
| O=C(/C=C/c1ccc(OC(F)(F)F)cc1F)N1C[C@@H]2CN(C(=O)c3ccc4[nH]nnc4c3)C[C@H]2C1 [Example 15.40, (E)-1-((3aR,6aR)-5-(1H-benzo[d][1,2,3]triazole-5-carbonyl)hexahydro-pyrrolo[3,4-c]pyrrol-2(1H)-yl)-3-(2-fluoro-4-(trifluoromethoxy)phenyl)-prop-2-en-1-one] | 5 |
| O=C(/C=C/c1ccc(Cl)cc1F)N1C[C@@H]2CN(C(=O)c3ccc4[nH]nnc4c3)C[C@H]2C1 [Example 15.41] | 17 |
| O=C(/C=C/c1cc(Cl)cc(Cl)c1)N1C[C@@H]2CN(C(=O)c3ccc4[nH]nnc4c3)C[C@H]2C1 [Example 15.42] | 6 |
| O=C(/C=C/c1ccc(OC(F)(F)F)cc1)N1C[C@@H]2CN(C(=O)C3CCc4[nH]nnc4C3)C[C@@H]2C1 (stereo partly shown) [Example 15.43] | 130 |
| O=C(CCc1ccc(OC(F)(F)F)cc1)N1C[C@@H]2CN(C(=O)c3ccc4[nH]nnc4c3)C[C@H]2C1 [Example 15.44] | 6 |
| CS(=O)(=O)c1cc(Cl)cc(/C=C/C(=O)N2C[C@@H]3CN(C(=O)c4ccc5[nH]nnc5c4)C[C@H]3C2)c1 [Example 15.46] | 18 |
| COc1cc(/C=C/C(=O)N2C[C@@H]3CN(C(=O)c4ccc5[nH]nnc5c4)C[C@H]3C2)cc(OC)c1 [Example 15.47] | 96 |
| O=C(/C=C/c1cc(Cl)cc(OC(F)(F)F)c1)N1C[C@@H]2CN(C(=O)c3ccc4[nH]nnc4c3)C[C@H]2C1 [Example 15.48] | 6 |
| COc1cc(Cl)cc(/C=C/C(=O)N2C[C@@H]3CN(C(=O)c4ccc5[nH]nnc5c4)C[C@H]3C2)c1 [Example 15.49] | 16 |
| N#Cc1cc(Cl)cc(/C=C/C(=O)N2C[C@@H]3CN(C(=O)c4ccc5[nH]nnc5c4)C[C@H]3C2)c1 [Example 15.50] | 6 |
| COc1cc(/C=C/C(=O)N2C[C@@H]3CN(C(=O)c4ccc5[nH]nnc5c4)C[C@H]3C2)cc(OC(F)(F)F)c1 [Example 15.51, (E)-1-[(3aR,6aR)-5-(1H-benzotriazole-5-carbonyl)-hexahydro-pyrrolo[3,4-c]pyrrol-2-yl]-3-(3-methoxy-5-trifluoromethoxy-phenyl)-prop-2-ene-1-one] | 6 |
| O=C1N[C@@H]2CCN(C(=O)N3C[C@H]4CN(C(=O)/C=C/c5ccc(OC(F)(F)F)cc5)C[C@@H]4C3)C[C@H]2O1 [Example 15.54] | 280 |
| O=C1N[C@@H]2CCN(C(=O)N3C[C@H]4CN(C(=O)CCc5ccc(OC(F)(F)F)cc5)C[C@@H]4C3)C[C@H]2O1 [Example 15.55] | 478 |
| O=C(/C=C/c1ccccc1)N1C[C@@H]2CN(C(=O)c3ccc4[nH]nnc4c3)C[C@H]2C1 [Example 15.56] | 655 |
| O=C(CCc1ccccc1)N1C[C@@H]2CN(C(=O)c3ccc4[nH]nnc4c3)C[C@H]2C1 [Example 15.57] | 494 |

| SMILES | IC50 [nM] |
| --- | --- |
| O=C(/C=C/c1ccc(C(F)(F)F)cc1)N1C[C@@H]2CN(C(=O)c3ccc4[nH]nnc4c3)C[C@H]2C1 [Example 15.58] | 5 |
| O=C(CCc1ccc(C(F)(F)F)cc1)N1C[C@@H]2CN(C(=O)c3ccc4[nH]nnc4c3)C[C@H]2C1 [Example 15.59] | 11 |
| CN(Cc1cnn[nH]1)C(=O)N1C[C@H]2CN(C(=O)CCc3ccc(OC(F)(F)F)cc3)C[C@H]2C1 [Example 15.60] | 1040 |
| CN(Cc1cnn[nH]1)C(=O)N1C[C@H]2CCN(C(=O)/C=C/c3ccc(OC(F)(F)F)c(F)c3)CC[C@H]2C1 [Example 15.61, (3aR,8aS)-N-((1H-1,2,3-triazol-5-yl)methyl)-6-((E)-3-(3-fluoro-4-(trifluoromethoxy)phenyl)-acryloyl)-N-methyloctahydro-pyrrolo[3,4-d]azepine-2(1H)-carboxamide] | 54 |
| O=C(CCc1ccc(C(F)(F)F)nc1)N1C[C@@H]2CN(C(=O)c3ccc4[nH]nnc4c3)C[C@H]2C1 [Example 15.62] | 68 |
| O=C(COc1ccc(OC(F)(F)F)cc1)N1C[C@@H]2CN(C(=O)c3ccc4[nH]nnc4c3)C[C@H]2C1 [Example 15.63] | 12 |
| Cc1cc(OCC(=O)N2C[C@@H]3CN(C(=O)c4ccc5[nH]nnc5c4)C[C@H]3C2)c(C(C)C)cc1Cl [Example 15.64] | 5 |
| O=C(CCc1ccc(-c2ccccc2)cc1)N1C[C@@H]2CN(C(=O)c3ccc4[nH]nnc4c3)C[C@H]2C1 [Example 15.65] | 3 |
| O=C(/C=C/c1ccc(F)cc1C(F)(F)F)N1CC[C@@H]2CN(C(=O)c3ccc4[nH]nnc4c3)C[C@@H]2CC1 [Example 15.66, (E)-1-((3aR,8aS)-2-(1H-benzo[d][1,2,3]triazole-5-carbonyl)octahydro-pyrrolo[3,4-d]azepin-6(7H)-yl)-3-(4-fluoro-2-(trifluoromethyl)phenyl)-prop-2-en-1-one] | 13 |
| Cc1cc(OCC(=O)N2C[C@@H]3CN(C(=O)c4ccc5[nH]nnc5c4)C[C@@H]3C2)c(C(C)C)cc1Cl [Example 15.67] | 14 |
| CS(=O)(=O)c1ccc(/C=C/C(=O)N2CC[C@@H]3CN(C(=O)c4ccc5[nH]nnc5c4)C[C@@H]3CC2)cc1 [Example 15.68] | 171 |
| O=C(/C=C/c1ccc(SC(F)(F)F)cc1)N1CC[C@@H]2CN(C(=O)c3ccc4[nH]nnc4c3)C[C@@H]2CC1 [Example 15.69, (E)-1-((3aR,8aS)-2-(1H-benzo[d][1,2,3]triazole-5-carbonyl)octahydropyrrolo[3,4-d]azepin-6(7H)-yl)-3-(4-(trifluoromethylthio)phenyl)prop-2-en-1-one] | 8 |
| O=C(/C=C/c1ccc(OC(F)(F)F)cc1)N1CC[C@@H]2CN(C(=O)c3ccc4[nH]nnc4c3)C[C@@H]2CC1 [Example 15.70] | 7 |
| O=C(COc1cccc(OC(F)(F)F)c1)N1C[C@@H]2CN(C(=O)c3ccc4[nH]nnc4c3)C[C@@H]2C1 [Example 15.71] | 1360 |
| O=C(/C=C/c1cccc(OC(F)(F)F)c1)N1CC[C@@H]2CN(C(=O)c3ccc4[nH]nnc4c3)C[C@@H]2CC1 [Example 15.72] | 15 |
| O=C(/C=C/c1cccc(OC(F)(F)F)c1)N1C[C@H]2CCN(C(=O)c3ccc4[nH]nnc4c3)C[C@@H]2C1 [Example 15.73] | 116 |
| O=C(/C=C/c1ccc(OC(F)(F)F)cc1)N1C[C@H]2CCN(C(=O)c3ccc4[nH]nnc4c3)C[C@@H]2C1 [Example 15.74] | 12 |
| O=C(/C=C/c1ccc(OC(F)(F)F)c(Cl)c1)N1C[C@H]2CCN(C(=O)c3ccc4[nH]nnc4c3)C[C@@H]2C1 [Example 15.75] | 5 |
| O=C(/C=C/c1cc(Cl)cc(Cl)c1)N1C[C@H]2CCN(C(=O)c3ccc4[nH]nnc4c3)C[C@@H]2C1 [Example 15.76] | 13 |
| O=C(/C=C/c1ccc(-c2ccccc2)nc1)N1C[C@@H]2CN(C(=O)c3ccc4[nH]nnc4c3)C[C@H]2C1 [Example 15.77] | 8 |
| O=C(/C=C/c1ccc(C(F)(F)F)cn1)N1C[C@@H]2CN(C(=O)c3ccc4[nH]nnc4c3)C[C@H]2C1 [Example 15.78, (E)-1-[(3aR,6aR)-5-(1H-benzotriazole-5-carbonyl)-hexahydro-pyrrolo[3,4-c]pyrrol-2-yl]-3-(5-trifluoromethyl-pyridin-2-yl)-prop-2-en-1-one] | 9 |
| O=C(/C=C/c1ccc(-c2ccncc2)cc1)N1C[C@@H]2CN(C(=O)c3ccc4[nH]nnc4c3)C[C@H]2C1 [Example 15.79, (E)-1-[(3aR,6aR)-5-(1H-benzotriazole-5-carbonyl)-hexahydro-pyrrolo[3,4-c]pyrrol-2-yl]-3-(4-pyridin-4-yl-phenyl)-prop-2-en-1-one] | 135 |
| O=C(/C=C/c1ccc(-c2cccnc2)cc1)N1C[C@@H]2CN(C(=O)c3ccc4[nH]nnc4c3)C[C@H]2C1 [Example 15.80, (E)-1-[(3aR,6aR)-5-(1H-benzotriazole-5-carbonyl)-hexahydro-pyrrolo[3,4-c]pyrrol-2-yl]-3-(4-pyridin-3-yl-phenyl)-prop-2-en-1-one] | 60 |
